Assay results published in US8349805B2, “Use of Gonadorelin as a therapeutic agent” (priority 2007, dated 2013).
Ends that are not written are not given here.

System: drug-resistant Mycobacterium tuberculosis
Conditions: 10 micrograms per ml; seven days at 37° C.; strain resistant to PAS, streptomycin and isoniazid

Molecule	inhibition of the growth of Mycobacterium tuberculosis [%]
CC(C)C[C@H](NC(=O)CNC(=O)[C@H](Cc1ccc(O)cc1)NC(=O)[C@H](CO)NC(=O)[C@H](Cc1c[nH]c2ccccc12)NC(=O)[C@H](Cc1cnc[nH]1)NC(=O)[C@@H]1CCC(=O)N1)C(=O)N[C@@H](CCCNC(=N)N)C(=O)N1CCC[C@H]1C(=O)NCC(N)=O [Peptide 1]	100
Met-Gln-Met-Lys-Lys-Val-Leu-Asp-Ser-OH (MQMKKVLDS-OH) [Peptide 2]	100
